Experiment [1] concerns the target muscarinic cholinergic receptor. The experiment is classed as binding, rat. The note with it: pH 7.4.
The target is the same in experiment [2]. Briefly: [^3 H]-Cis-methyldioxolane (^3 H-CD) Binding Assay (High Affinity). Particulars: rat cerebral cortex, ^3 H-CD 1.0 nM, 25° C., 120 minutes, pH 7.4; high affinity agonist binding.
[3] abbreviates: rat cerebral cortex, ^3 H-QNB 0.25 nM, 25° C., 120 minutes.

A word on the Ki: it is a dissociation constant, usually derived from enzyme kinetics or from competition with a known ligand.

Molecules are shown by their SMILES. Where a name gives a salt, the structure may show the parent alone. Read-outs that look alike come from different tables or passages of the source.

Consider `CC(C)(C)C(=O)O[C@H]1CCN(CC#CC[N+](C)(C)C)C1=O` [(S)-4-[3-(2,2-Dimethyl-1-oxopropoxy)-2-oxo-1-pyrrolidinyl]-N,N, N-trimethyl-2-butyn-1-aminium iodide], for which the Ki in experiment [1] (setting [3]) stood at 478 µM; in experiment [2], 7.8 µM.
For `CN(C)CC#CCN1CC[C@H](N=[N+]=[N-])C1=O` [(S)-3-Azido-1-[4-(dimethylamino)-2-butynyl]-2-pyrrolidinone] the same measures were over 100 µM and 0.63 µM.
Taken in the same sequence, the figures for `CCCCCCCCOC(=O)O[C@@H]1CCN(CC#CC[N+](C)(C)C)C1=O` [(R)-N,N, N-Trimethyl-4-[3-[[(octyloxy)carbonyl]oxy]-2-oxo-1-pyrrolidinyl]-2-butyn-1-aminium iodide] were 0.2 µM and 0.01 µM.
On to `CC(C)(C)[Si](C)(C)O[C@H]1CCN(CC#CCN2CCCC2)C1=O` [(S)-3-[[(1,1-Dimethylethyl)-dimethylsily]0xy]-1-[4-(1-pyrrolidinyl)-2-butynyl]-2-pyrrolidinone], for which the Ki worked out at 2.7 µM in experiment [1] (setting [3]) and 3 µM in experiment [2].
`NCC#CCN1CCCC1` [4-(1-Pyrrolidinyl)-2-butyn-1-amine dihydrochloride]: the figures for the Ki in experiment [1] (setting [3]) and in experiment [2] were over 100 µM and 13 µM, respectively.
Taken in the same sequence, the figures for `O=C(NCC#CCN1CCCC1)C(F)(F)F` [2,2,2-Trifluoro-N-[4-(1-pyrrolidinyl)-2-butynyl]acetamide monohydrochloride] were 18.5 µM and 8.88 µM.
For the molecule `CC(C)(C)[Si](C)(C)OC[C@@H]1CCCN1CC#CCN1CC[C@H](O)C1=O` [[S-(R*,R*)]-1-[4-[2-[[[(1,1-Dimethylethyl)dimethylsilyl]-oxy]methyl]-1-pyrrolidinyl]-2-butynyl]-3-hydroxy-2-pyrrolidinone], the Ki was 0.4 µM in experiment [1] (setting [3]) and 0.14 µM in experiment [2].
Taken in the same sequence, the figures for `CS[C@H]1CCN(CC#CCN2CCCC2)C1=O` [(S)-3-(Methylthio)-1-[4-(1-pyrrolidinyl)-2-butynyl]-2-pyrrolidinone] were 53 µM and 1.04 µM.
For `CC(=O)O[C@@H]1CCN(CC#CCN2CCC[C@@H]2CO[Si](C)(C)C(C)(C)C)C1=O` [[R-(R*,R*)]-3-Acetyloxy)-1-[4-[2-[[[(1,1-dimethylethyl)-dimethylsilyl]oxy]methyl]-1-pyrrolidinyl]-2-butynyl]-2-pyrrolidinone] the same measures were over 100 µM and 10.1 µM.
Take `CC(C)(C)[Si](C)(C)OC[C@H]1CCCN1CC#CCN1CC[C@H](O)C1=O` [[S-(R*,S*)]-1-[4-[2-[[[(1,1-Dimethylethyl)dimethylsilyl]-oxy]methyl]-1-pyrrolidinyl]-2-butynyl]-3-hydroxy-2-pyrrolidinone]: the Ki is 198 µM in experiment [1] (setting [3]) and 1.7 µM in experiment [2].
For `CC(=O)O[C@H]1CCN(CC#CCN2CCC[C@@H]2CO[Si](C)(C)C(C)(C)C)C1=O` [[S-(R*,S*)]-3-(Acetyloxy)-1-[4-(2-[[[(1,1-dimethylethyl)dimethylsilyl]oxy]methyl]-1-pyrrolidinyl]-2-butynyl]-2-pyrrolidinone] the same measures were over 100 µM and 4.2 µM.
As for `CCCCCCCCOC(=O)O[C@H]1CCN(CC#CC[N+](C)(C)C)C1=O` [(S)-N,N, N-Trimethyl-4-[3-[[(octyloxy)carbonyl]oxy]-2-oxo-1-pyrrolidinyl]-2-butyn-1-aminium iodide], the Ki was determined as 0.1 µM in experiment [1] (setting [3]) and 0.013 µM in experiment [2].
Taken in the same sequence, the figures for `CN(CC#CCN1CC[C@H](O)C1=O)CCCCO` [(S)-3-Hydroxy-1-[4-[(4-hydroxybutyl)methylamino]-2-butynyl]-2-pyrrolidinone] were over 100 µM and 1.3 µM.
Consider `CCCCCCOC(=O)O[C@H]1CCN(CC#CCN2CCCC2)C1=O` [(S)-Carbonic acid hexyl 2-oxo-1-[4-(1-pyrrolidinyl)-2-butynyl]-3-pyrrolidinyl ester], for which the Ki in experiment [1] (setting [3]) was 1.7 µM; in experiment [2], 0.015 µM.
Taken in the same sequence, the figures for `CC1CCN(CC#CCn2ccnc2)C1=O` (racemic) [Racemic 1-[4-(1H-imidazol-1-yl)-2-butynyl]-3-methyl-2-pyrrolidinone] were 6.7 µM and 0.057 µM.
As to `CN(C)C(=O)O[C@H]1CCN(CC#CCN2CCCC2)C1=O` [(S)-Dimethylcarbamic acid 2-oxo-1-[4-(1-pyrrolidinyl)-2-butynyl]-3-pyrrolidinyl ester], the Ki in experiment [1] (read-out: ^3 H-QNB Ki) is 40.3 µM; in experiment [2], 9.56 µM.
Consider `O=C1[C@@H](O)CCN1CC#CCN1CCC[C@@H]1CO` [[S-(R*,S*)]-3-Hydroxy-1-[4-[2-(hydroxymethyl)-1-pyrrolidinyl]-2-butynyl]-2-pyrrolidinone], for which the results for the Ki in experiment [1] (setting [3]) and in experiment [2] were over 100 µM and 2.6 µM, respectively.
`CS[C@H]1CCN(CC#CCN(C)C)C1=O` [(S)-1-[4-(Dimethylamino)-2-butynyl]-3-(methylthio)-2-pyrrolidinone]: the figures for the Ki in experiment [1] (setting [3]) and in experiment [2] were over 100 µM and 6.4 µM, respectively.
On to `COC(=O)O[C@H]1CCN(CC#CCN(C)C)C1=O` [(S)-Carbonic acid 1-[4-(dimethylamino)-2-butynyl]-2-oxo-3-pyrrolidinyl methyl ester], for which the figures for the Ki in experiment [1] (setting [3]) and in experiment [2] were 15.1 µM and 2.16 µM, respectively.
For `CCN(CC)CC#CCN` [N,N-Diethyl-2-butyne-1,4-diamine dihydrochloride] the same measures were over 100 µM and over 100 µM.
Regarding `CCCCCCCCNC(=O)O[C@@H]1CCN(CC#CC[N+](C)(C)C)C1=O` [(R)-N,N, N-Trimethyl-4-[3-[[(octylamino)carbonyl]oxy]-2-oxo-1-pyrrolidinyl]-2-butyn-1-aminium iodide], the Ki came to 0.5 µM in experiment [1] (setting [3]) and 0.49 µM in experiment [2].
In the case of `CC(C)(C)C(=O)O[C@@H]1CCN(CC#CCN2CCCC2)C1=O` [(R)-2,2-Dimethylpropanoic acid 2-oxo-1-[4-(1-pyrrolidinyl)-2-butynyl]-3-pyrrolidinyl ester], the results for the Ki in experiment [1] (setting [3]) and in experiment [2] were 10.2 µM and 0.5 µM, respectively.
For `CC(=O)O[C@@H]1CCN(CC#CCN2CCC[C@H]2CO[Si](C)(C)C(C)(C)C)C1=O` [[R-(R*,S*)]-3-(Acetoxy)-1-[4-[2-[[[(1,1-dimethylethyl)dimethylsilyl]oxy]methyl]-1-pyrrolidinyl]-2-butynyl]-1]-2-pyrrolidinone], the Ki is 500 µM in experiment [1] (setting [3]) and 1.7 µM in experiment [2].
For `CC(C)C(=O)O[C@@H]1CCN(CC#CC[N+](C)(C)C)C1=O` [(R)-N,N, N-Trimethyl-4-[3-(2-methyl-1-oxopropoxy)-2-oxo-1-pyrrolidinyl]-2-butyn-1 aminium iodide] the same measures were 45 µM and 0.24 µM.
For `CC(C)(C)C(=O)O[C@H]1CCN(CC#CCN2CCCC2)C1=O` [(S)-2,2-Dimethylpropanoic acid 2-oxo-1-[4-(1-pyrrolidinyl)-2-butynyl]-3-pyrrolidinyl ester] the same measures were 4.6 µM and 0.37 µM.
Taken in the same sequence, the figures for `O=C1[C@@H](O)CCN1CC#CCN1CCC[C@H]1CO` [[S-(R*,R*)]-3-Hydroxy-1-[4-[2-(hydroxymethyl)-1-pyrrolidinyl]-2-butynyl]-2-pyrrolidinone] were over 100 µM and 34.3 µM.
In the case of `O=C1[C@H](O)CCN1CC#CCN1CCCC1` [(R)-3-Hydroxy-1-[4-(1-pyrrolidinyl)-2-butynyl]-2-pyrrolidinone], the values for the inhibition constant (Ki) in experiment [1] (setting [3]) and in experiment [2] were 3.4 µM and 0.125 µM, respectively.
For `N[C@H]1CCN(CC#CCN2CCCC2)C1=O` [(S)-3-Amino-1-[4-(1-pyrrolidinyl)-2-butynyl]-2-pyrrolidinone dihydrochloride] the same measures were 73.6 µM and 0.41 µM.
Taken in the same sequence, the figures for `CC1CCN(CC#CCN2CCC(O[Si](C)(C)C(C)(C)C)C2)C1=O` (stereo not drawn) [[R-(R*,R* and R*,S*)]-1-[4-[3[[(1,1-dimethylethyl)-dimethylsilyl]oxy]-1-pyrrolidinyl-2-butynyl]-3-methyl-2-pyrrolidinone] were over 100 µM and over 100 µM.
Taken in the same sequence, the figures for `C[N+](C)(C)CC#CCN1CC[C@H](N=[N+]=[N-])C1=O` [(S)-4-(3-Azido-2-oxo-1-pyrrolidinyl)-N,N,N-trimethyl-2-butyn-1-aminium iodide] were 1.6 µM and 0.045 µM.
For the molecule `CN(C)CC#CCN1CC[C@H](O)C1=O` [(S)-1-[4-(Dimethylamino)-2-butynyl]-3-hydroxy-2-pyrrolidinone], the Ki in experiment [1] (setting [3]) stood at 26.9 µM; in experiment [2], 0.043 µM.
For `CC(C)(C)[Si](C)(C)O[C@H]1CCN(CC#CCN2CCC2)C1=O` [(S)-1-[4-(1-Azetidinyl)-2-butynyl]-3-[[(1,1-dimethylethyl)-dimethylsilyl]oxy]-2-pyrrolidinone] the same measures were 5.8 µM and 5.6 µM.
Taken in the same sequence, the figures for `CN(CC#CCN1CC[C@@H](O)C1=O)CCO` [(R)-3-Hydroxy-1-[4-[(2-hydroxyethyl)methylamino]-2-butynyl]-2-pyrrolidinone] were over 100 µM and 1.8 µM.
Regarding `CCCCCCCCOC(=O)O[C@H]1CCN(CC#CCN(C)C)C1=O` [(S)-Carbonic acid 1-[4-(dimethylamino)-2-butynyl]-2-oxo-3-pyrrolidinyl octyl ester], the results for the Ki in experiment [1] (setting [3]) and in experiment [2] were 10 µM and 0.306 µM, respectively.
Taken in the same sequence, the figures for `CC1CCN(CC#CCN2CCC2)C1=O` (racemic) [Racemic 1-[4-(1-azetidinyl)-2-butynyl-3-methyl-2-pyrrolidinone, Racemic 1-[4-(1-azetidinyl)-2-butynyl]-3-methyl-2-pyrrolidinone] were 2 µM and 0.054 µM.
In the case of `CC(=O)O[C@@H]1CCN(CC#CCN(C)CCO)C1=O` [(R)-3-(Acetyloxy)-1-[4-[2-(hydroxyethyl)methylamino]-2-butynyl]-2-pyrrolidinone], the Ki was over 100 µM in experiment [1] (setting [3]) and 28.3 µM in experiment [2].
Take `CN(C)CC#CCN1CC[C@@H](N=[N+]=[N-])C1=O` [(R)-3-Azido-1-[4-(dimethylamino)-2-butynyl]-2-pyrrolidinone]: the results for the Ki in experiment [1] (setting [3]) and in experiment [2] were over 100 µM and 0.5 µM, respectively.

These data come from patent publication US5637731A (priority 1996, dated 1997).
